The test deals with T1, nvTRPM2 (transient receptor potential melastatin 2) (Nematostella vectensis, UniProt A7T1N0).
T1 construct: gene TRPM2; purified and reconstituted into planar lipid bilayers
Description: single-channel recording of purified channel in planar lipid bilayers (activation). The format is biochemical.

One may read the EC50 as the concentration that produces a half-maximal response.

Molecules are shown by their SMILES. Read-outs that look alike come from different tables or passages of the source.

T1 sequence (A7T1N0 whole entry): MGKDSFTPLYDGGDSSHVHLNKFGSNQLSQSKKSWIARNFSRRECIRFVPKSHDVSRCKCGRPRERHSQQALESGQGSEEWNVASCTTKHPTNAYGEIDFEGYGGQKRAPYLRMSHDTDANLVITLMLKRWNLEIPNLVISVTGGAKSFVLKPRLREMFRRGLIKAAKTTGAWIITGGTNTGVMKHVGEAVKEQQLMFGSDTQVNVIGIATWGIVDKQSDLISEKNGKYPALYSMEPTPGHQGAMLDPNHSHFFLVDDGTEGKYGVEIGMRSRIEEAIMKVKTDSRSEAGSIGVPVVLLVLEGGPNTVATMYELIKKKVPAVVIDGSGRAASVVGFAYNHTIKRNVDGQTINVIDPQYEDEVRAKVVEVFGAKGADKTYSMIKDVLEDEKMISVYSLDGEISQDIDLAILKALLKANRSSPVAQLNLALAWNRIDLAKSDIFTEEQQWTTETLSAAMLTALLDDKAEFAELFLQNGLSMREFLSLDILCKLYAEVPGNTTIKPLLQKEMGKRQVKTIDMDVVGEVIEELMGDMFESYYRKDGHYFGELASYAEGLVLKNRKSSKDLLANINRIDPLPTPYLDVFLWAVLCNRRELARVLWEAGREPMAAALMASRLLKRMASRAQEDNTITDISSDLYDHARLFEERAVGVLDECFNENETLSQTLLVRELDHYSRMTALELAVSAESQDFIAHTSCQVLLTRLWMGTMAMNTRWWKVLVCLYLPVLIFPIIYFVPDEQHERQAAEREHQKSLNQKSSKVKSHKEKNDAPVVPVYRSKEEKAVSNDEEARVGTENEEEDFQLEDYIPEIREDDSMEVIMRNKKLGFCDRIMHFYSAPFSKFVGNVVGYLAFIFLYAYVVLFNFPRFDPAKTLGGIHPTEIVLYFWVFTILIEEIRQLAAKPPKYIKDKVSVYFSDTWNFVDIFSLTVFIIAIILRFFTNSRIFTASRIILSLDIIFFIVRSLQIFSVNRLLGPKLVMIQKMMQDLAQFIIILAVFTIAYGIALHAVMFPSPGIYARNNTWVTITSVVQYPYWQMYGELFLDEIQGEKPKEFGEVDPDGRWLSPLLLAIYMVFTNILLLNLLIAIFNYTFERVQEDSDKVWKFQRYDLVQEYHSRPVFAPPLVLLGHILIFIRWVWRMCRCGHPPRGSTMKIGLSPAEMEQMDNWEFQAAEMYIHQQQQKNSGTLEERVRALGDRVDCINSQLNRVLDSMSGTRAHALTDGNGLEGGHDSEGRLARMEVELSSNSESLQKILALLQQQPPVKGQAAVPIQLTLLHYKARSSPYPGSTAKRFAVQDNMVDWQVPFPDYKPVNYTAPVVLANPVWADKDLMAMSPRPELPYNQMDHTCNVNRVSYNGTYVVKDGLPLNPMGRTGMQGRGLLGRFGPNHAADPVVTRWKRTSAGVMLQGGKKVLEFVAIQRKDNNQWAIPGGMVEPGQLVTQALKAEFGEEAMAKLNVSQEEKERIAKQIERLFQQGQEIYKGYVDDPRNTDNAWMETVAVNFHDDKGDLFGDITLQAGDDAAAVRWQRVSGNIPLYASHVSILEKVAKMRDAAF

Regarding `Nc1ncnc2c1ncn2[C@@H]1O[C@H](COP(=O)(O)OP(=O)(O)OC[C@H]2OC(O)[C@H](O)[C@@H]2O)[C@@H](O)[C@H]1OP(=O)(O)O` (some centres unmarked) [ADPRP], the EC50 is approximately 200 nM.

For `Nc1ncnc2c1ncn2[C@@H]1O[C@H](COP(=O)(O)OP(=O)(O)OC[C@H]2OC(O)[C@H](O)[C@@H]2O)[C@@H](O)[C@H]1O` (some centres unmarked) [ADPR], the concentration for a half-maximal effect (EC50) (read-out: EC50) was approximately 1000 nM.

(Values after publication PMC10349829, “Functional characterization of the transient receptor potential melastatin 2 (TRPM2) cation channel from Nematostella vectensis reconstituted into lipid bilayer” (Scientific Reports, 2023).)
